# From ChEMBL document CHEMBL1201862, “PubChem BioAssay data set” (2004)
#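 48-hour exposure; five concentrations; linearly interpolated endpoints. Here, GI50 denotes the concentration required for 50% inhibition of growth.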 Active and inactive are the calls of the source. No stated cut-off is given here; in the data, active = GI50 up to about 1.1 µM and inactive = higher.
# How the values were obtained:
# Assay in all cases: inhibition of tumour cell growth, NCI panel, 48 h
# [1] = system: MDA-MB-231
# [2] = system: KM12
# [3] = system: SK-MEL-5
# [4] = system: T47D
# [5] = system: HCC 2998
# [6] = system: SF-295
# [7] = system: SW-620
# [8] = system: CCRF-CEM
# [9] = system: TK-10
# [10] = system: LOX IMVI
# [11] = system: SNB-75
# [12] = system: NCI/ADR-RES
# [13] = system: PC-3
# [14] = system: HT-29
# [15] = system: OVCAR-4
# [16] = system: SN12C
# [17] = system: IGROV-1
# [18] = system: SK-MEL-2
# [19] = system: COLO 205
# [20] = system: NCI-H23
Compound,GI50 [1],GI50 [2],GI50 [3],GI50 [4],GI50 [5],GI50 [6],GI50 [7],GI50 [8],GI50 [9],GI50 [10],GI50 [11],GI50 [12],GI50 [13],GI50 [14],GI50 [15],GI50 [16],GI50 [17],GI50 [18],GI50 [19],GI50 [20]
COc1ccc(-c2nc(-c3cc4ccccc4oc3=O)cs2)cc1,20.9 µM (inactive),> 100 µM (inactive),> 100 µM (inactive),> 100 µM (inactive),77.8 µM (inactive),> 100 µM (inactive),> 100 µM (inactive),> 100 µM (inactive),70.6 µM (inactive),> 100 µM (inactive),52.2 µM (inactive),47.9 µM (inactive),> 100 µM (inactive),95.9 µM (inactive),> 100 µM (inactive),44.5 µM (inactive),86.1 µM (inactive),> 100 µM (inactive),> 100 µM (inactive),–
O[C@@H]1CCC[C@@H]2NC[C@@H](c3ccc4c(c3)OCO4)[C@H]12,> 100 µM (inactive),> 100 µM (inactive),> 100 µM (inactive),> 100 µM (inactive),> 100 µM (inactive),> 100 µM (inactive),> 100 µM (inactive),> 100 µM (inactive),> 100 µM (inactive),> 100 µM (inactive),> 100 µM (inactive),> 100 µM (inactive),> 100 µM (inactive),> 100 µM (inactive),> 100 µM (inactive),–,> 100 µM (inactive),> 100 µM (inactive),> 100 µM (inactive),> 100 µM (inactive)
CCN(CC)CCCNc1nncc2c(C)c3[nH]c4ccccc4c3cc12,0.374 µM (active),0.667 µM (active),1.99 µM (inactive),0.705 µM (active),0.802 µM (active),2.74 µM (inactive),–,0.02 µM (active),4.52 µM (inactive),0.242 µM (active),1.41 µM (inactive),89.5 µM (inactive),0.705 µM (active),0.258 µM (active),0.514 µM (active),0.292 µM (active),0.617 µM (active),2.22 µM (inactive),0.653 µM (active),0.743 µM (active)
COC(=O)[C@@H](N1C(=O)c2ccccc2C1=O)C1(C)CC(Cl)=NO1 (stereo partly specified),19.1 µM (inactive),> 100 µM (inactive),> 100 µM (inactive),28.5 µM (inactive),> 100 µM (inactive),28.1 µM (inactive),> 100 µM (inactive),> 100 µM (inactive),31.1 µM (inactive),–,17.8 µM (inactive),26.8 µM (inactive),> 100 µM (inactive),> 100 µM (inactive),> 100 µM (inactive),33 µM (inactive),17.7 µM (inactive),> 100 µM (inactive),> 100 µM (inactive),48.3 µM (inactive)
CC[C@]1(Cc2ccc(OC)c(OC)c2)C=[N+]([O-])O[C@H](OCc2ccccc2)[C@@H]1OC(C)=O,36.4 µM (inactive),22.2 µM (inactive),27.9 µM (inactive),20 µM (inactive),45.7 µM (inactive),53.6 µM (inactive),32.8 µM (inactive),19.6 µM (inactive),41.7 µM (inactive),17.5 µM (inactive),30.5 µM (inactive),33.3 µM (inactive),20.5 µM (inactive),29.5 µM (inactive),24.1 µM (inactive),–,25.1 µM (inactive),23 µM (inactive),17.1 µM (inactive),34.9 µM (inactive)
O=C(N/N=C(COc1ccccc1Cl)\N=C\c1cccnc1)c1ccncc1,> 100 µM (inactive),> 100 µM (inactive),–,> 100 µM (inactive),> 100 µM (inactive),> 100 µM (inactive),> 100 µM (inactive),> 100 µM (inactive),> 100 µM (inactive),> 100 µM (inactive),> 100 µM (inactive),> 100 µM (inactive),> 100 µM (inactive),> 100 µM (inactive),> 100 µM (inactive),> 100 µM (inactive),> 100 µM (inactive),> 100 µM (inactive),> 100 µM (inactive),> 100 µM (inactive)
COc1ccc2cc(C(C)C(=O)N3C(=O)OCC3(C)C)ccc2c1 (stereo unspecified),> 100 µM (inactive),–,> 100 µM (inactive),> 100 µM (inactive),> 100 µM (inactive),> 100 µM (inactive),> 100 µM (inactive),> 10 µM (inactive),> 100 µM (inactive),> 100 µM (inactive),46.6 µM (inactive),> 100 µM (inactive),> 100 µM (inactive),> 100 µM (inactive),> 100 µM (inactive),> 100 µM (inactive),> 100 µM (inactive),–,> 100 µM (inactive),> 100 µM (inactive)
O=C(Oc1ccc(S(=O)(=O)F)cc1F)c1ccccc1Cl,23.8 µM (inactive),30.4 µM (inactive),16.2 µM (inactive),31.5 µM (inactive),42.6 µM (inactive),32.1 µM (inactive),44.3 µM (inactive),–,43.1 µM (inactive),31.8 µM (inactive),24.9 µM (inactive),35.2 µM (inactive),37.8 µM (inactive),27 µM (inactive),30.1 µM (inactive),31.5 µM (inactive),30.8 µM (inactive),54.5 µM (inactive),19.5 µM (inactive),23.9 µM (inactive)
CC(C)c1ccc2c(c1)C=C1OC(=O)[C@]3(C)CCC[C@@]2(C)C13 (stereo partly specified),> 100 µM (inactive),> 100 µM (inactive),> 100 µM (inactive),> 100 µM (inactive),> 100 µM (inactive),> 100 µM (inactive),> 100 µM (inactive),> 100 µM (inactive),> 100 µM (inactive),–,> 100 µM (inactive),> 100 µM (inactive),> 100 µM (inactive),> 100 µM (inactive),> 100 µM (inactive),> 100 µM (inactive),> 100 µM (inactive),–,> 100 µM (inactive),> 100 µM (inactive)
CC1=CC(=O)N(n2c(C)n[nH]c2=O)C1=O,> 100 µM (inactive),> 100 µM (inactive),> 100 µM (inactive),> 100 µM (inactive),> 100 µM (inactive),> 100 µM (inactive),> 100 µM (inactive),> 100 µM (inactive),> 100 µM (inactive),> 100 µM (inactive),–,> 100 µM (inactive),> 100 µM (inactive),> 100 µM (inactive),> 100 µM (inactive),> 100 µM (inactive),> 100 µM (inactive),> 100 µM (inactive),> 100 µM (inactive),> 100 µM (inactive)
COC(=O)C(C(=O)C(=O)NC1Nc2ccc(C)cc2S1)c1nc2ccc(Cl)cc2nc1O (stereo unspecified),> 100 µM (inactive),> 100 µM (inactive),> 100 µM (inactive),> 100 µM (inactive),> 100 µM (inactive),> 100 µM (inactive),> 100 µM (inactive),–,> 100 µM (inactive),> 100 µM (inactive),> 100 µM (inactive),> 100 µM (inactive),> 100 µM (inactive),> 100 µM (inactive),74 µM (inactive),> 100 µM (inactive),40.6 µM (inactive),> 100 µM (inactive),–,> 100 µM (inactive)
O=C1C(Cl)=C(OCCCl)C(=O)c2c(O)ccc(O)c21,4.38 µM (inactive),19.7 µM (inactive),2.75 µM (inactive),1.39 µM (inactive),18.5 µM (inactive),17.5 µM (inactive),2.05 µM (inactive),0.0813 µM (active),2.6 µM (inactive),4.32 µM (inactive),13 µM (inactive),15.2 µM (inactive),13.2 µM (inactive),4.73 µM (inactive),2.77 µM (inactive),14.8 µM (inactive),7.13 µM (inactive),–,1.61 µM (inactive),5.75 µM (inactive)
O=C1OC2(c3ccc(O)cc3Oc3cc(O)ccc32)c2c1c(-c1ccccc1)c(-c1ccccc1)c(-c1ccccc1)c2-c1ccccc1,18.7 µM (inactive),17.1 µM (inactive),27.7 µM (inactive),26.5 µM (inactive),16.4 µM (inactive),21.6 µM (inactive),20.9 µM (inactive),–,23.7 µM (inactive),18.5 µM (inactive),18.7 µM (inactive),31.2 µM (inactive),17.9 µM (inactive),18.7 µM (inactive),27.8 µM (inactive),25.1 µM (inactive),19.1 µM (inactive),20 µM (inactive),19.3 µM (inactive),–
COC(=O)C1(CCCCCBr)CCCCCCCCCCC1=O (stereo unspecified),36.6 µM (inactive),46.5 µM (inactive),16.3 µM (inactive),32.8 µM (inactive),41.1 µM (inactive),35.6 µM (inactive),72.4 µM (inactive),22.6 µM (inactive),> 100 µM (inactive),27.3 µM (inactive),–,37.2 µM (inactive),44.1 µM (inactive),42.2 µM (inactive),19.8 µM (inactive),37.6 µM (inactive),30.5 µM (inactive),28.9 µM (inactive),31.8 µM (inactive),45.9 µM (inactive)
N#C/C(=C/NC(=S)NCc1ccccc1)C(N)=O,> 100 µM (inactive),> 100 µM (inactive),> 100 µM (inactive),> 100 µM (inactive),> 100 µM (inactive),> 100 µM (inactive),> 100 µM (inactive),> 100 µM (inactive),–,> 100 µM (inactive),> 100 µM (inactive),> 100 µM (inactive),> 100 µM (inactive),> 100 µM (inactive),> 100 µM (inactive),> 100 µM (inactive),> 100 µM (inactive),> 100 µM (inactive),> 100 µM (inactive),> 100 µM (inactive)
